Assay results reported in patent publication US3933793A, “Therapeutically active 2-aminoalkylthio-3H-1.5-benzodiazepines and process for preparing them” (Recordati S.A. Chemical and Pharmaceutical Company, priority 1971, dated 1976).
Converted amounts (≈) assume the structure as drawn. Counter-ions that a name gives are not always drawn.

Assays:
[1] = tested on: Bacillus subtilis ATCC 9466; assay: Antibacterial activity, minimum inhibitory concentration; details: ATCC9466, 18 h, read-out: minimum inhibitory concentration, B. subtilis
Procedure: (§1) The antibacterial activity of some of the 3H-1,5-benzodiazepines having the general formula I was tested on the following microorganisms:
(§2) Escherichia coli 100, Bacillus subtilis ATCC 9466, Micrococcus pyogenes SG-511, grown in Difco nutritive gelatin; Streptococcus pyogenes A 88 grown in Difco "Brain heart infusion agar" gelatin with 5 percent difibrinated Guinea pig blood.
(§3) The results were read after 18 hours incubation at 35°-37°C.

[2] = tested on: Escherichia coli 100; assay: as above; details: Escherichia coli, 100, 18 h, read-out: minimum inhibitory concentration, B. coli
Procedure: as §1, §2, §3

[3] = tested on: influenza A virus (PR8 strain); type: in vivo; details: 0.5 MTD in 10 ml buffered saline with virus, 1 hour at 37°C
[4] = tested on: Streptococcus pyogenes A 88; assay: Antibacterial activity, minimum inhibitory concentration; details: A88, 18 h, read-out: minimum inhibitory concentration, S. pyogenes
Procedure: as §1, §2, §3

[5] = tested on: Micrococcus pyogenes SG-511; assay: as above; details: Staphylococcus aureus, SG511, 18 h, read-out: minimum inhibitory concentration, M. pyogenes
Procedure: as §1, §2, §3

Structure (SMILES) | MIC [1] [mg/L] | MIC [2] [mg/L] | APR8: difference between logarithms of EID95 of controls and of treated eggs [3] | MIC [4] [mg/L] | MIC [5] [mg/L]
C[N+]1(CCSC2=Nc3ccccc3N=C(c3ccc(Sc4ccccc4)cc3)C2)CCCC1 [Compound 44, 2, beta,N-pyrrolidinoethylthio-4,p-phenylthiophenyl-3H-1,5-benzodiazepine iodomethylate] | 40 | 160 | 2 |  | 
C[N+](C)(C)CCSC1=Nc2ccccc2N=C(c2ccc(Sc3ccccc3)cc2)C1 [Compound 46, 2,beta,N-dimethylaminoethylthio-4,p-phenylthiophenyl-3H-1,5-benzodiazepine iodomethylate] | 20 | 160 | 2 |  | 
CC[N+](C)(CC)CCCSC1=Nc2ccccc2N=C(c2ccc(Sc3ccccc3)cc2)C1 [Compound 40, 2,gamma,N-diethylaminopropylthio-4,p-phenylthiophenyl-3H-1,5-benzodiazepineiodomethylate] | 5 | 5 | 1 | 5 | 
CN1CCN(CCSC2=Nc3ccccc3N=C(c3ccccc3)C2)CC1 [Compound 63] |  |  | 1 |  | 
CC[N+](C)(CC)CCSC1=Nc2ccccc2N=C(c2cccc(Cl)c2)C1 [Compound 22, 2,beta,N-diethylaminoethylthio-4,m-chlorophenyl-3H-1,5-benzodiazepine iodomethylate] | 80 | 40 |  | 40 | 20
C[N+](C)(C)CCCSC1=Nc2ccccc2N=C(c2ccc(Sc3ccccc3)cc2)C1 [Compound 42, 2,gamma,N-dimethylaminopropylthio-4,p-phenylthiophenyl-3H-1,5-benzodiazepine iodomethylate] | 40 | 80 | 3 |  | 
C[N+]1(C)CCN(CCSC2=Nc3ccccc3N=C(c3ccc(Sc4ccccc4)cc3)C2)CC1 [Compound 35, 2,beta,N(N'-methyl)piperazinoethylthio-4,p-phenylthiophenyl-3H-1,5-benzodiazepine monoiodomethylate] | 10 |  | 2 |  | 
CC[N+](C)(CC)CCSC1=Nc2ccccc2N=C(c2ccc(Br)cc2)C1 [Compound 72] | 20 | 20 |  | 20 | 10
CC[N+](C)(CC)CCCSC1=Nc2ccccc2N=C(c2ccc(Cl)cc2)C1 [Compound 20, 2,gamma,N-diethylaminopropylthio-4,p-chlorophenyl-3H-1,5-benzodiazepine iodomethylate] | 80 | 80 |  | 40 | 20
C[N+]1(CCSC2=Nc3ccccc3N=C(c3ccccc3)C2)CCOCC1 [Compound 62] |  |  | 1 |  | 
CCN(CC)CCSC1=Nc2ccccc2N=C(c2cccc(Cl)c2)C1 [Compound 21, 2,beta,N-diethylaminothylthio-4,m-chlorophenyl-3H-1,5-benzodiazepine^. HCl] | 20 | 80 |  | 40 | 40
CCCSc1ccc(C2=Nc3ccccc3N=C(SCC[N+](C)(CC)CC)C2)cc1 [Compound 78] | 1.25 | 10 |  | 1.25 | 1.25
Clc1ccc(C2=Nc3ccccc3N=C(SCCN3CCCC3)C2)cc1 [Compound 15, 2,beta,N-pyrrolidinoethylthio-4,p-chlorophenyl-3H-1,5-benzodiazepine] | 20 (≈ 52.1 µM) | 80 (≈ 208 µM) |  | 40 (≈ 104 µM) | 40 (≈ 104 µM)
CC[N+](C)(CC)CCSC1=Nc2ccccc2N=C(c2ccc(SC)cc2)C1 [Compound 74] | 10 | 40 |  | 10 | 20
CCSc1ccc(C2=Nc3ccccc3N=C(SCC[N+](C)(CC)CC)C2)cc1 [Compound 76] | 10 | 20 |  | 10 | 10
CN(C)CCCSC1=Nc2ccccc2N=C(c2ccc(Sc3ccccc3)cc2)C1 [Compound 41, 2,gamma,N-dimethylaminopropylthio-4,p-phenylthiophenyl-3H-1,5-benzodiazepine.HCl] | 10 |  | > 3 | 1.25 | 

Structure (SMILES) | MIC [1] [mg/L] | MIC [2] [mg/L] | APR8: difference between logarithms of EID95 of controls and of treated eggs [3] | MIC [4] [mg/L] | MIC [5] [mg/L]
CC[N+](C)(CC)CCSC1=Nc2ccccc2N=C(c2ccc(Sc3ccccc3)cc2)C1 [Compound 30, 2,beta,N-diethylaminoethylthio-4,p-phenylthio-phenyl-3H-1,5-benzodiazepine iodomethylate] | 10 |  | 1 |  | 
CC[N+](C)(CC)CCSC1=Nc2ccccc2N=C(c2ccc(SC(C)C)cc2)C1 [Compound 80] | 5 | 40 |  | 5 | 5
CC[N+](CC)(CCSC1=Nc2ccccc2N=C(c2ccc(Sc3ccccc3)cc2)C1)Cc1ccccc1 [Compound 31, 2,beta,N-diethylaminoethylthio-4,p-phenylthio-phenyl-3H-1,5-benzodiazepine bromobenzylate] | 10 |  | > 3 |  | 
CCN(CC)CCSC1=Nc2ccccc2N=C(c2ccc(C)cc2)C1 [Compound 66] | 40 (≈ 109 µM) |  | 1 | 80 (≈ 219 µM) | 
C[N+]1(CCSC2=Nc3ccccc3N=C(c3ccc(Cl)cc3)C2)CCCC1 [Compound 16, 2,β,N-pyrrolidinoethylthio-4,p-chlorophenyl-3H-1,5-benzodiazepine iodomethylate] | 40 | 40 |  | 40 | 20
C[N+]1(CCCSC2=Nc3ccccc3N=C(c3ccc(Sc4ccccc4)cc3)C2)CCCC1 [Compound 38, 2,gamma,N-pyrrolidinopropylthio-4,p-phenylthiophenyl-3H-1,5-benzodiazepine iodomethylate] | 10 | 160 | 3 | 10 | 2.5
C[N+]1(CCCSC2=Nc3ccccc3N=C(c3ccc(Cl)cc3)C2)CCCC1 [Compound 14, 2,gamma,N-pyrrolidinopropylthio-4,p-chlorophenyl-3H-1.5-benzodiazepine iodomethylate] | 40 | 40 |  | 40 | 20
CC[N+](C)(CC)CCSC1=Nc2ccccc2N=C(c2ccc(Oc3ccccc3)cc2)C1 [Compound 28, 2,beta,N-diethylaminoethylthio-4,p-phenoxyphenyl-3H-1,5-benzodiazepine iodomethylate] |  |  | 1 |  | 
CCN(CC)CCSC1=Nc2ccccc2N=C(c2ccc(Br)cc2)C1 [Compound 71] | 10 (≈ 23.2 µM) | 80 (≈ 186 µM) |  | 10 (≈ 23.2 µM) | 20 (≈ 46.5 µM)
Clc1ccc(C2=Nc3ccccc3N=C(SCCCN3CCCC3)C2)cc1 [Compound 13, 2,gamma,N-pyrrolidinopropylthio-4,p-chlorophenyl-3H-1,5-benzodiazepine^. HCl] | 40 | 80 |  | 40 | 40
C[N+]1(CCSC2=Nc3ccccc3N=C(c3ccc(Sc4ccccc4)cc3)C2)CCCCC1 [Compound 48, 2,beta,N-piperidinoethylthio-4,p-phenylthiophenyl-3H-1,5-benzodiazepine iodomethylate] | 10 | 80 | > 4 |  | 
CCN(CC)CCCSC1=Nc2ccccc2N=C(c2ccc(Sc3ccccc3)cc2)C1 [Compound 39, 2,gamma,N-diethylaminopropylthio-4,p-phenylthiophenyl-3H-1,5-benzodiazepinecitrate] | 10 (≈ 21.1 µM) |  | 3 |  | 
C[N+]1(CCSC2=Nc3ccccc3N=C(c3ccc(Sc4ccccc4)cc3)C2)CCOCC1 [Compound 50, 2,beta,N-morpholinoethylthio-4,p-phenylthiophenyl-3H-1,5-benzodiazepine iodomethylate] | 10 | 160 | 2 |  | 
CN1CCN(CCSC2=Nc3ccccc3N=C(c3ccc(Sc4ccccc4)cc3)C2)CC1 [Compound 34, 2,beta,N(N'-methyl)piperazinoethylthio-4,p-phenylthiophenyl-3H-1,5-benzodiazepine citrate] | 40 |  | > 3 |  | 
CCN(CC)CCCSC1=Nc2ccccc2N=C(c2ccc(Cl)cc2)C1 [Compound 19, 2,gamma,N-diethylaminopropylthio-4,p-chlorophenyl-3H-1,5-benzodiazepine^. HCl] | 40 | 80 |  | 40 | 40
C[N+]1(CCSC2=Nc3ccccc3N=C(c3ccccc3)C2)CCCC1 [Compound 58] |  |  | 1 |  | 
